For series [1], the target named is T1, beta-catenin/TCF4 interaction (Homo sapiens, UniProt P35222).
T1 construct: host or cells: HEK293
T1 sequence (P35222 1-781): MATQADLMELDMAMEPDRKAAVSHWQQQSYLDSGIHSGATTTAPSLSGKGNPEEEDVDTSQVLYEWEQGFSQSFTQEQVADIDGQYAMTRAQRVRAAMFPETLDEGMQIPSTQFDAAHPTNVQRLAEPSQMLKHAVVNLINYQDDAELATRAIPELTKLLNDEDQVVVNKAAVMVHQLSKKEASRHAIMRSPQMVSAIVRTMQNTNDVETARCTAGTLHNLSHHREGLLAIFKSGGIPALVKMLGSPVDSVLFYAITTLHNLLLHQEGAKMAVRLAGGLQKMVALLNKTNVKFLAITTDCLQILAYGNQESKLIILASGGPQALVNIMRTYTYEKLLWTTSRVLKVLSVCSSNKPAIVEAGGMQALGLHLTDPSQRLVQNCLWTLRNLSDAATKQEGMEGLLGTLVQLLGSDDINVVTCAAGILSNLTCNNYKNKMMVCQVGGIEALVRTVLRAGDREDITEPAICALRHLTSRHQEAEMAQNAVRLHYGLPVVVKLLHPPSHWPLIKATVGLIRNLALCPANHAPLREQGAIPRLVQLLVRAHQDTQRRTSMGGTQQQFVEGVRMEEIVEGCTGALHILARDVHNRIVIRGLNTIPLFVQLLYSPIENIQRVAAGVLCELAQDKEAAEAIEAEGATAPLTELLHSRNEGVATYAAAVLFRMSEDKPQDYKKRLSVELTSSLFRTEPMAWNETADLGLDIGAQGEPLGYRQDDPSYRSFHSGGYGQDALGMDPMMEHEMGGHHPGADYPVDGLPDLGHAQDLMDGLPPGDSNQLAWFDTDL
The class given is cell-based. The following applies: read-out: NanoBRET IC50. (BRET reads energy transfer from a luciferase to a nearby fluorophore.)

Series [2] relates to beta-catenin driven transcription in HAP1 WT cells. Put plainly: qPCR of beta-catenin driven transcription in HAP1 WT cells (CHIR treated). The class given is cell-based. The settings on record: CHIR treated. For orientation: In qPCR the cycle at which signal appears reflects the starting amount.
Series [3] relates to Wnt/beta-catenin pathway in COLO320DM tumors. Description: Tumor RNA-sequencing and GSEA in COLO320DM tumors. The class given is in vivo, mice. The settings on record: 48-hr post-dose, i.p. 30 mg/kg. An excerpt:
It is noted that both negatively and positively enriched gene sets were observed. Among other things, the present disclosure provides technologies for assessing efficacy of a method, e.g., a treatment, comprising assessing expression of one or more negatively and/or positively enriched genes. In some embodiments, if expression profiles of one or more genes are negatively and/or positively enriched as identified herein, a method may be considered to have efficacy, and/or administration (e.g., of provided technologies such as stapled peptides, compositions, etc.) to a subject can continue. […]
RNAseq Data Analysis. In some embodiments, sequence reads were trimmed to remove possible adapter sequences and nucleotides with poor quality using Trimmomatic v.0.39. The trimmed reads were mapped to the Homo sapiens GRCh38 reference genome available on ENSEMBL using the STAR aligner v.2.7.7a. For grafted tumor samples, host reads were removed with XenofilteR. Unique gene hit counts were calculated by using featureCounts from the R Subread package v.2.4.2. Read filtering, normalization, and differentially expression analysis was performed with the edgeR package v.4.0.2 in R. Genes with an adjusted p-value <0.01 and absolute log 2 fold change >1 were called as differentially expressed genes for each comparison. […]
RNAseq Preparation. […] On average over 60 million 2×150 base pair reads were produced per sample. […]

A word on the IC50: it is the midpoint of a concentration-inhibition curve. With “Ac-PL3-Glu-Npg-B5-Glu-3COOHF-Aib-Ala-Phe-Lys*3-PyrS2-3Thi-BztA-GlnR*3-Ala-NH2 [I-470]”, the 50% inhibitory concentration (IC50) in series [1] was over 20 µM. In addition, the “expression of AXIN2 and SP5 by qPCR (transcription)” value in series [2] is given as “No reduction”. This substance registered a concentration in tumors in series [3] of 5181 ng/gram.

(Values after patent publication US20240360179A1, “STAPLED PEPTIDES AND METHODS THEREOF” (FOG PHARMACEUTICALS, INC., priority 2021, published 2024).)
